Measurements taken from patent publication US7465783B2, “Plant peptide with antimicrobial activity” (Centre National de la Recherche Scientifique, priority 2002, dated 2008).
Ends that are not written are not given here.

Experiments:
Assay type in all cases: cell-based
[1] = system: Escherichia coli Strain DH5α; experiment: Antimicrobial (bacteriostatic) activity, peptide drops on TOPagar lawn
Experimental: (§1) Toxicity experiments on the peptide of 25 amino acids (SUP 25) purified in the preceding example on different bacteria were carried out. The different bacteria are cultured in 5 ml of LB medium or of medium appropriate to the strain, and then sedimented by centrifugation at 3000 g, and finally taken up in a volume of LB identical to the volume of bacteria. 50 μl of bacteria are inoculated into 9 ml of liquid TOPagar (LB+7 g/l of bactoagar) at 48° C. and rapidly poured into a square LB agar dish of 10 cm on each side. The drops of 10 μl of different concentrations of peptides are deposited on the solidified ToPagar. The dish is cultured for 16 hours. Cecropin A at 20 μM, an insect peptide recognized as having antibacterial activity, serves as a positive control.

[2] = system: Xanthomonas campestris pv campestris strain 8004; experiment: as above
Experimental: as §1

[3] = system: Pseudomonas syringae pv tomato strain DC3000; experiment: as above
Experimental: as §1

[4] = system: protoplasts of Arabidopsis thaliana
Description: This experiment has the aim of determining whether the effect of the peptide on the viability of the protoplasts of Arabidopsis thaliana corresponds to the cell necrosis or else to the implementation of the process of programmed cell death or apoptosis.
Apoptosis is distinguished from necrosis by a rigorous staging of death, punctuated by a set of genetically controlled events (Vaux and Korsmeyer (Cell, 1999, 96: 245-254); Pennell and Lamb (Plant Cell, 1997, 9: 1157-1168); Greenberg (P.N.A.S., 1996, 93: 12094-12097)). […] The TUNEL reaction allows the free 3′OH ends present in great quantity in the nuclei whose DNA is fragmented in the course of the process of apoptosis to be labeled.
The external application of the peptide of 25 amino acids to protoplasts of Arabidopsis thaliana at 5 μM for 2 hours allows an increase in the population of positive TUNEL protoplasts to be observed (FIG. 5B). 4 times more nuclei show DNA fragmentation characteristics with respect to the control.

Substance	Cecropin A 20 μM (positive control, antibacterial activity) [1]	Cecropin A 20 μM (positive control, antibacterial activity) [2]	Cecropin A 20 μM (positive control, antibacterial activity) [3]	cytotoxic activity (fragmentation of nuclear DNA, TUNEL), in words [4]
Cecropin A [reference compound]	Positive	Positive	Positive	
MWWLVGLTPVELIHLSAFRERLSHL [Pep2S]				has a cytotoxic activity
MWWLVGLTPVELIHLCAFRERLSHL [Pep1S]				no longer has cytotoxic activity
